The values that follow come from US20020007060A1, “Reverse hydroxamate inhibitors of matrix metalloproteinases” (priority 1998, published 2002).

SMILES strings stand for the structures. Structures can show the parent of a compound that is named as a salt.

In the case of `COCC(CS(=O)(=O)c1ccc(-c2ccc(C(F)(F)F)cc2)cc1)N(O)C=O` (racemic) [Example 126, (±)-N-hydroxy-N-[1-(methoxymethyl)-2-[[4′-(trifluoromethyl)[1,1′-biphenyl]-4-yl]sulfonyl]ethyl]formamide], the melting point (commonly the temperature, or range, at which the solid turns liquid) was in the range of 175.3 to 176.3 °C.
The same measure for `CN1C(=O)N(CC(COc2ccc(-c3cccc(C#N)c3)cc2)N(O)C=O)C(=O)C1(C)C` (centres unmarked) [Example 39, N-[1-[[(3′-cyano[1,1′-biphenyl]-4-yl)oxy]methyl]-2-(3,4,4-trimethyl-2,5-dioxo-1-imidazolidinyl)ethyl]-N-hydroxyformamide]: 130 to 132 °C; for `CSc1ccc(-c2ccc(OCC(CN3C(=O)N(C)C(C)(C)C3=O)N(O)C=O)cc2)cc1` (centres unmarked) [Example 40, N-[1-[[[4′-(methylthio)[1,1′-biphenyl]-4-yl]oxy]methyl]-2-(3,4,4-trimethyl-2,5-dioxo-1-imidazolidinyl)ethyl]-N-hydroxyformamide]: 172 to 174 °C.
In the case of `O=CN(O)C(CS(=O)(=O)c1ccc(-c2ccc(C(F)(F)F)cc2)cc1)c1ccccn1` (racemic) [Example 123, (±)-N-hydroxy-N-[1-(2-pyridinyl)-2-[[4′-(trifluoromethyl) [1,1′-biphenyl]-4-yl]sulfonyl]ethyl]formamide] it was 168.5 to 168.9 °C; in that of `COCOc1ccc(C(CS(=O)(=O)c2ccc(-c3ccc(C(F)(F)F)cc3)cc2)N(O)C=O)cc1` (racemic) [Example 129, (±)-N-hydroxy-N-[1-[4-(methoxymethoxy)phenyl]-2-[[4′-(trifluoromethyl)[1,1′-biphenyl]-4-yl]sulfonyl]ethyl]formamide], 137.1 to 138.5 °C.
The compound `CN1C(=O)N(CC(CS(=O)(=O)c2ccc(Oc3ccc(C(F)(F)F)cc3)cc2)N(O)C=O)C(=O)C1(C)C` (racemic) [Example 153, (±)-N-[1-[(2,5-dioxo-3,4,4-trimethyl-1-imidazolidinyl)methyl]-2-[[4-[4-(trifluoromethyl)phenoxy]phenyl]sulfonyl]ethyl]-N-hydroxyformamide] yielded a melting point of 141 to 143 °C.
The same measure for `CC(CS(=O)(=O)c1ccc(-c2ccc(Cl)cc2)cc1)N(O)C=O` (centres unmarked) [Example 72, N-[1-[[(4′-chloro[1,1′-biphenyl]-4-yl)sulfonyl]methyl]ethyl]-N-hydroxyformamide]: 178 to 180 °C.
In the case of `N#Cc1ccc(-c2ccc(OCC(c3ccc(F)cc3)N(O)C=O)cc2)cc1` (racemic) [Example 11, (±)-N-[2-[(4′-cyano-[1,1′-biphenyl]-4-yl)oxy]-1-(4-fluorophenyl)ethyl]-N-hydroxyformamide] it was 194 to 196 °C; in that of `CC(CS(=O)(=O)c1ccc(-c2ccc3c(c2)OCO3)cc1)N(O)C=O` (centres unmarked) [Example 73, N-[1-[[[4-(1,3-benzodioxol-5-yl)phenyl]sulfonyl]methyl]ethyl]-N-hydroxyformamide], 200 to 201 °C; in that of `CC(COc1ccc(-c2ccc(C#N)cc2)cc1)N(O)C=O` (racemic) [Example 13, (±)-N-[1-[[(4′-cyano-[1,1′-biphenyl]-4-yl)oxy]methyl]ethyl]-N-hydroxyformamide], 141 to 144 °C.
In the case of `O=CN(O)C(CS(=O)(=O)c1ccc(-c2ccc(C(F)(F)F)cc2)cc1)c1cccnc1` (racemic) [Example 120, (±)-N-hydroxy-N-[1-(3-pyridinyl)-2-[[4′-(trifluoromethyl)[1,1′-biphenyl]-4-yl]sulfonyl]ethyl]formamide] it was 186.5 to 188.8 °C; in that of `O=CN(O)C(CCO)CS(=O)(=O)c1ccc(-c2ccc(C(F)(F)F)cc2)cc1` (racemic) [Example 125, (±)-N-hydroxy-N-[3-hydroxy-1-[[[4′-(trifluoromethyl)[1,1′-biphenyl]-4-yl]sulfonyl]methyl]propyl]formamide], 186.5 to 188.8 °C.
`CC1(C)NC(=O)N(CCC(COc2ccc(-c3ccc(C#N)cc3)cc2)N(O)C=O)C1=O` (centres unmarked) [Example 47, N-[1-[[(4′-cyano[1,1′-biphenyl]-4-yl)oxy]methyl]-3-(4,4-dimethyl-2,5-dioxo-1-imidazolidinyl)propyl]-N-hydroxyformamide] showed a melting point of 202 to 204 °C.
In the case of `N#Cc1ccc(-c2ccc(OCC(CN3C(=O)c4ccccc4C3=O)N(O)C=O)cc2)cc1` (racemic) [Example 3, (±)-N-[1-[[(4′-cyano-[1,1′-biphenyl]-4-yl)oxy]methyl]-2-(2,3-dihydro-1,3-dioxo-1H-isoindol-2-yl)ethyl]-N-hydroxyformamide] it was 199 to 202 °C; in that of `O=CN(O)C(CCCO)CS(=O)(=O)c1ccc(-c2ccc(C(F)(F)F)cc2)cc1` (racemic) [Example 128, (±)-N-hydroxy-N-[4-hydroxy-1-[[[4′-(trifluoromethyl)[1,1′-biphenyl]-4-yl]sulfonyl]methyl]butyl]formamide], 138.9 to 140.3 °C; in that of `CCC(C)C(COc1ccc(-c2ccc(C#N)cc2)cc1)N(O)C=O` (racemic) [Example 8, (±)-N-[1-[[(4′-cyano-[1,1′-biphenyl]-4-yl)oxy]methyl]-2-methylbutyl]-N-hydroxyformamide], 96 to 98 °C.
In the case of `CSc1ccc(-c2ccc(S(=O)(=O)CC(CO)N(O)C=O)cc2)cc1` (racemic) [Example 150, (±)-N-hydroxy-N-[1-(hydroxymethyl)-2-[[4′-(methylthio)[1,1′-biphenyl]-4-yl]sulfonyl]ethyl]formamide] it was 161 to 162 °C; in that of `CCCCC(COc1ccc(-c2ccc(C#N)cc2)cc1)N(O)C=O` (racemic) [Example 9, (±)-N-[1-[[(4′-cyano-[1,1′-biphenyl]-4-yl)oxy]methyl]pentyl]-N-hydroxyformamide], 105 to 108 °C; in that of `CN1C(=O)N(CC(COc2ccc(-c3ccc(S(N)(=O)=O)cc3)cc2)N(O)C=O)C(=O)C1(C)C` (centres unmarked) [Example 114, N-[1-[[[4′-(aminosulfonyl)[1,1′-biphenyl]-4-yl]oxy]methyl]-2-(3,4,4-trimethyl-2,5-dioxo-1-imidazolidinyl)ethyl]-N-hydroxyformamide], 203 to 205 °C.
`O=CN(O)C(CS(=O)(=O)c1ccc(-c2ccc(OC(F)(F)F)cc2)cc1)c1ccccn1` (racemic) [Example 186, (±)-N-hydroxy-N-[1-(2-pyridinyl)-2-[[4′-(trifluoromethoxy)[1,1′-biphenyl]-4-yl]sulfonyl]ethyl]formamide]: the melting point fell in the range of 116.4 to 117.6 °C.
`O=CN(O)C(COCc1ccccc1)CS(=O)(=O)c1ccc(-c2ccc(C(F)(F)F)cc2)cc1` (centres unmarked) [Example 77, N-[1-[(phenylmethoxy)methyl]-2-[[4′-(trifluoromethyl)[1,1′-biphenyl]-4-yl]sulfonyl]ethyl]-N-hydroxyformamide]: the melting point amounted to 172 °C.
In the case of `N#Cc1cccc(-c2ccc(OCC(CN3C(=O)CCC3=O)N(O)C=O)cc2)c1` (centres unmarked) [Example 49, N-[1-[[(3′-cyano[1,1′-biphenyl]-4-yl)oxy]methyl]-2-(2,5-dioxo-1-pyrrolidinyl)ethyl]-N-hydroxyformamide] it was 128 °C; in that of `CS(=O)(=O)c1ccc(-c2ccc(S(=O)(=O)CC(CO)N(O)C=O)cc2)cc1` (racemic) [Example 148, (±)-N-hydroxy-N-[1-(hydroxymethyl)-2-[[4′-(methylsulfonyl)[1,1′-biphenyl]-4-yl]sulfonyl]ethyl]formamide], 165 to 167 °C; in that of `CCC(CS(=O)(=O)c1ccc(-c2ccc(OC)cc2)cc1)N(O)C=O` (centres unmarked) [Example 75, N-[1-[[(4′-methoxyl[1,1′-biphenyl]-4-yl)sulfonyl]methyl]propyl]-N-hydroxyformamide], 199 to 200 °C.
Consider `O=CN(O)C(CS(=O)(=O)c1ccc(-c2ccc(C(F)(F)F)cc2)cc1)c1ccc2c(c1)OCO2` (racemic) [Example 127, (±)-N-[1-(1,3-benzodioxol-5-yl)-2-[[4′-(trifluoromethyl)[1,1′-biphenyl]-4-yl]sulfonyl]ethyl]-N-hydroxyformamide], for which the melting point fell in the range of 159.5 to 160.5 °C.
Take `O=CN(O)C(CO)CS(=O)(=O)c1ccc(Oc2ccc(OC(F)(F)F)cc2)cc1` (racemic) [Example 138, (±)-N-hydroxy-N-[1-(hydroxymethyl)-2-[[4-[4-(trifluoromethoxy)phenoxy]phenyl]sulfonyl]ethyl]formamide]: the melting point fell in the range of 115 to 117 °C.
The same measure for `CC(CS(=O)(=O)c1ccc(Oc2ccc(Cl)cc2)cc1)N(O)C=O` (centres unmarked) [Example 74, N-[1-[[[4-(4-chlorophenoxy)phenyl]sulfonyl]methyl]ethyl]-N-hydroxyformamide]: 144 to 145 °C.
The same measure for `CC1(C)CC(=O)N(CC(COc2ccc(-c3ccc(C#N)cc3)cc2)N(O)C=O)C(=O)C1` (centres unmarked) (as salt: potassium) [Example 50, N-[1-[[(4′-cyano[1,1′-biphenyl]-4-yl)oxy]methyl]-2-(4,4-dimethyl-2,6-dioxo-1-piperidinyl)ethyl]-N-hydroxyformamide]: 121 °C; for `N#Cc1ccc(-c2ccc(OCC(COc3ccccc3)N(O)C=O)cc2)cc1` (racemic) [Example 1, (±)-N-[1-[[(4′-cyano-[1,1′-biphenyl]-4-yl)oxy]methyl]-2-phenoxyethyl]-N-hydroxyformamide]: 133 to 135 °C; for `CC1(C)CC(=O)N(CC(CS(=O)(=O)c2ccc(-c3ccc(C(F)(F)F)cc3)cc2)N(O)C=O)C(=O)C1` (racemic) [Example 124, (±)-N-[1-[(4,4-dimethyl-2,6-dioxo-1-piperidinyl)methyl]-2-[[4′-(trifluoromethyl)[1,1′-biphenyl]-4-yl]sulfonyl]ethyl]-N-hydroxyformamide]: 185.6 to 187.3 °C.
The same measure for `CC(CS(=O)(=O)c1ccc(-c2ccc(C(F)(F)F)cc2)cc1)N(O)C=O` (racemic) [Example 122, (±)-N-hydroxy-N-[1-methyl-2-[[4′-(trifluoromethyl)[1,1′-biphenyl]-4-yl]sulfonyl]ethyl]formamide]: 174.6 to 175.2 °C.
In turn, `Cc1ccc(CC(COc2ccc(-c3ccc(C#N)cc3)cc2)N(O)C=O)cc1` (racemic) [Example 10, (±)-N-[1-[[(4′-cyano-[1,1′-biphenyl]-4-yl)oxy]methyl]-2-(4-methylphenyl)ethyl]-N-hydroxyformamide] showed a melting point of 173 to 175 °C.
